A melting point compilation (Tetko et al.; mined from patent text by program, amines drawn as free bases though some values may be those of a salt)

In the case of CCOC(=O)C1CCc2ccc3[nH]c(C(F)(F)F)nc3c2O1 (configuration not stated), the melting point is reported as 134 °C.
With O=C1C(=O)c2ccccc2C2=C1SCC1(CCN(Cc3ccccc3)CC1)O2 the melting point was 170 to 172 °C.
Molecule CNC(=S)NN=C(CCCCl)c1ccccc1 has a melting point of 94 to 96 °C.
For CC(C)OC(=O)N=C1SCS1, the melting point was 72 to 73 °C.
O=C(O)C=C=Cc1ccc(C2CCCCC2)cc1 showed a melting point of 126 to 129 °C.
Work on COc1cc([N+](=O)[O-])ccc1S(=O)(=O)Nc1ccccc1C yielded a melting point of 127 to 129 °C.
Molecule CC(C)(C)OC(=O)N[C@@H](CC1CCCCC1)[C@@H]1C[C@@H](C(C)(C)O)C(=O)O1 has a melting point of 123 to 125 °C.
For Cc1c(C2CCC(c3cccs3)(N(C)C)CC2)[nH]c2ccccc12 (configuration not stated), the melting point was 191 to 197 °C.
Work on O=[N+]([O-])c1ccc(S(=O)(=O)Nc2cccc3c(Cl)c[nH]c23)cc1 yielded a melting point of 200 °C.
With CCOC(=O)c1ncc2[nH]c3cccc(Oc4ccccc4)c3c2c1COC the melting point was 174 to 176 °C.
In the case of COc1cc(C)nc(NC(=O)NS(=O)(=O)c2ccccc2C(=O)Nc2nncs2)n1, the melting point is reported as 172 to 173 °C.
CC(=O)Nc1cc(OS(=O)(=O)c2ccc(C)cc2)nc(=N)n1OC(C)=O gave a melting point of 196 to 200 °C.
Work on CC(=O)c1ccc(NS(=O)(=O)c2sc3ccc(F)cc3c2C)c(S(C)(=O)=O)c1 yielded a melting point of 174 to 175 °C.
For COC1(OC)CCC2=C3C(c4ccc(C5OCC(C)(C)CO5)cc4)CC4(C)C(=O)CCC4C3CCC2(O)C1 (configuration not stated), the melting point was 194 to 202 °C.
CC(C)(C)C(NC(=O)c1cccc2c1-c1ccccc1C2=O)Nc1c(Nc2cccnc2)c(=O)c1=O (configuration not stated) gave a melting point of 201 to 202 °C.
O=C(C=Cc1ccccc1)NNC(=O)C=Cc1ccccc1 showed a melting point of 267 to 268 °C.
Work on COC(=O)c1c(N)ncn1C1c2ccccc2CC1(C)C (configuration not stated) yielded a melting point of 100 to 105 °C.
O=C(Nc1nccs1)c1c([C@@H]2CCCN2)nc2c(C(F)(F)F)cccc2c1O showed a melting point of 196 °C.
For O=C1c2cc3nnn(Cc4nc5ccccc5s4)c(=O)c3cc2OC2CCCN12 (configuration not stated), the melting point was 224 to 227 °C.
Molecule Cn1c2ccc(Br)cc2c2sccc(=O)c21 has a melting point of 243 to 244 °C.
COc1ccc2c(c1OC)CCC2c1c[nH]cn1 (configuration not stated) showed a melting point of 156 to 158 °C.
Molecule COC(=O)CSc1ccc2ccc(Oc3c(Cl)cc(C(F)(F)F)cc3OC)cc2c1 has a melting point of 115 °C.
N#CSc1nc(I)ncc1I gave a melting point of 183 to 185 °C.
COc1ccc(C(=O)Nc2ccc(-n3nc(C(F)(F)F)cc3C(F)(F)F)cc2)cc1 showed a melting point of 205 to 207 °C.
Molecule CCOc1ccc(N=Cc2cc(OC)c(OC)c(OC)c2)cc1 has a melting point of 75 to 77 °C.
With COc1cc2cn(CC(O)CO)nc2cc1OC (configuration not stated) the melting point was 113 to 115 °C.
CC(C)(C)CNN(CC(C)(C)C)S(=O)(=O)c1nc(Cl)cs1 gave a melting point of 157 °C.
Molecule O=C(O)c1cc(OCCCc2cc(-c3ccc(C(F)(F)F)cc3)no2)nn1-c1ccccc1 has a melting point of 145 to 146 °C.
Molecule COc1ccc2nc(-c3cccc(C)c3)cc(OCc3ccccc3)c2c1 has a melting point of 133 to 134 °C.
Work on CCCCc1ncc(CNC(C)(Cc2ccccc2)C(=O)O)n1Cc1ccccc1Cl (configuration not stated) yielded a melting point of 157 to 159 °C.
Molecule O=C1Cc2cc(Cl)cc(C(=O)c3ccccc3)c2N1 has a melting point of 186 to 187 °C.
Molecule CC(C)(C)OC(=O)N1CCn2c(C(=O)N[C@@H](Cc3ccccc3)[C@H](O)CNC3(c4cccc(C(F)(F)F)c4)CC3)cc(C(=O)O)c2C1 has a melting point of 134 °C.
For N#CN=C(NCC(=O)O)Nc1cccc(Cl)c1, the melting point was 109 °C.
Molecule COC(=O)[C@H](Cc1ccc(-c2cn(C)c(=O)n(C)c2=O)cc1)NC(=O)c1c(C)cccc1Cl has a melting point of 155 to 157 °C.
With CC(C)n1c(S)nc(-c2ccc(F)cc2)c1-c1ccc(F)cc1 the melting point was 308 to 312 °C.
Molecule CC1(C)CC(C)(C)c2cc(CC(=O)O)ccc21 has a melting point of 143 °C.
C=CCN(C#N)c1c(Cl)ccc2nsnc12 showed a melting point of 62 to 63 °C.
For O=C1C(=Cc2ccc([N+](=O)[O-])s2)CCc2cc(OCCn3ccnc3)ccc21, the melting point was greater than 240 °C.
For Cc1c(-c2ccncc2)sc(-c2ccncc2)c1C(F)F, the melting point was 132 to 133 °C.
Work on COc1cc(NCCCCCCO)c2nccc(C)c2c1 yielded a melting point of 97 to 99 °C.
In the case of CC(=O)Nc1ccc(NC(=O)NC23CC4CC(CC(C4)C2)C3)cn1, the melting point is reported as 252 to 254 °C.
CC(C)c1cc(C#N)cc(C(=O)Nc2ccc(F)cn2)n1 showed a melting point of 194 °C.
Work on Cc1cccc(C2C(C#N)=C(C(C)C)Nc3n[nH]cc32)c1[N+](=O)[O-] (configuration not stated) yielded a melting point of 261 °C.
Work on COC(=O)C(=CNc1ccc(F)c(F)c1OCC(C)OS(=O)(=O)c1ccc(C)cc1)C(=O)OC (configuration not stated) yielded a melting point of 89 to 90 °C.
Molecule COc1ccccc1-n1c(Cn2cnc3c(N)ncnc32)nc2cccc(Cl)c2c1=O has a melting point of 257 °C.
C=C(NC(C)=O)c1ccc(F)cn1 gave a melting point of 61 to 62.2 °C.
CCOC(=O)C(=NOC)C1=CSc2ccccc2O1 showed a melting point of 78 to 80 °C.
CCOC(=O)N1CCN(c2c(F)cc([N+](=O)[O-])c(NC3CC3)c2C)CC1 showed a melting point of 97 to 98 °C.
Work on CC(C)c1ccc(S(=O)(=O)n2c(CBr)cc3cc(C(F)(F)F)ccc32)cc1 yielded a melting point of 100 °C.
In the case of O=C(Nc1ccccc1)OCC1(COC(=O)Nc2ccccc2)CSc2ccccc2C1=O, the melting point is reported as 67 to 69 °C.
CCCCCCNc1ccncc1 showed a melting point of 68 to 70 °C.
Molecule O=C(Nc1cccnc1)N1CCN(c2cc(-c3ccccc3F)ncn2)CC1 has a melting point of 178 to 179 °C.
In the case of c1ccc(CN2CCc3[nH]c4c(-c5ccccc5)cccc4c3CC2)cc1, the melting point is reported as 78 to 79 °C.
Molecule CC(=O)c1ccc(CCCOc2c(C)cc(N3CN=C(C(F)(F)F)O3)cc2C)nn1 has a melting point of 86 to 87 °C.
Work on O=C1C2=C(C=C3OCCC13)CCCO2 (configuration not stated) yielded a melting point of 101 °C.
Cc1cccc(Br)c1C=O showed a melting point of 48 to 49 °C.
COc1cccc(-n2nc(Sc3ccc(Cl)cc3)c(C)c(C#N)c2=O)c1 showed a melting point of 148 to 149 °C.
COP(=S)(OC)Oc1nc(F)c(Cl)cc1Cl gave a melting point of less than 20 °C.
OCCOCn1c(Cl)nc2c(Cl)c(Cl)c(Cl)c(Cl)c21 gave a melting point of 168 to 170 °C.
With CCCCc1nc(Cl)c(COC(C)=O)n1Cc1ccc(-c2cccc(C(=O)O)c2)cc1 the melting point was 172 to 173 °C.
For COc1cc(OC)cc(C(=O)N2CCc3cc(O)ccc3C2=O)c1, the melting point was 178 to 179 °C.
CC(C)c1ccc(S(=O)(=O)Nc2ccc(N3CCC(NC(=O)OC(C)(C)C)CC3)nc2)cc1 gave a melting point of 208 to 209 °C.
For COc1ccc(-c2c(C(N)=O)c3n(c2Cl)CCN(C(=O)NC(C)(C)C)C3)cc1, the melting point was 168 to 170 °C.
Cc1ccc(N=Cc2ccc(-c3ccccc3)cc2)cc1 showed a melting point of 137 to 139 °C.
In the case of COc1ccc(-c2nnc(Cl)nc2-c2ccc(OC)cc2)cc1, the melting point is reported as 130 to 132 °C.
Molecule COc1cc(-c2nc(NCCC(=O)O)c3c(C)c(C#N)sc3n2)cc(OC)c1OC has a melting point of 222 to 225 °C.
CC1(C)Oc2ccc(C#N)cc2C(Oc2ccccn2)C1O (configuration not stated) gave a melting point of 102 to 103 °C.
In the case of CN1c2ccccc2Sc2cn(C)c(=O)c(C#N)c21, the melting point is reported as 236 to 237 °C.
In the case of Ic1cc(I)c(OCCC(c2ccccc2)c2ccccc2)c(I)c1, the melting point is reported as 120 to 121 °C.
Molecule CCCCCCCCCCCCCCOc1ccccc1CBr has a melting point of 35 to 36 °C.
COC(=O)C(Br)c1ccc(S(C)(=O)=O)cc1 (configuration not stated) showed a melting point of 81.8 to 83.3 °C.
O=C(Nc1cc(F)ccc1F)c1cc(-c2ccc(F)cc2F)ccc1O showed a melting point of 213 to 214 °C.
Work on Cc1nc2c(c(=O)[nH]1)-c1cc(S(=O)(=O)Nc3ccc([N+](=O)[O-])cc3)ccc1CC2 yielded a melting point greater than 240 °C.
In the case of CC(C)CCCC(C)CCOc1cc(CCl)c(OCCC(C)CCCC(C)C)cc1CCl (configuration not stated), the melting point is reported as 55 °C.
In the case of Cc1cc(C)cc(C(=O)c2c(C(C)C)c(=O)[nH]c(=O)n2C/C=C/CCl)c1, the melting point is reported as 178 to 179 °C.
In the case of CCOC(=O)CCCCCCCCCCNC(=O)CN(CCN(CCN(CC(=O)O)CC(=O)O)CC(=O)O)CC(=O)O, the melting point is reported as 155 to 157 °C.
In the case of CN(C)N=Nc1cc(-c2ccccc2)sc1C(=O)O, the melting point is reported as 162 to 166 °C.
Molecule CCC(CC)n1nnc2c(Nc3c(Cl)cc(OC)cc3OC)nc(C)cc21 has a melting point of 168 to 169 °C.
For O=C(O)c1cn(-c2cccc(I)c2)cn1, the melting point was 229 to 230 °C.
In the case of CCOc1ccc(O)c2c1C(=O)N(CSc1nnnn1-c1ccccc1)S2(=O)=O, the melting point is reported as 178 to 180 °C.
CC(=O)Nc1ccc(OCC(F)(F)F)cc1[N+](=O)[O-] showed a melting point of 117 to 118 °C.
In the case of O=S(=O)(c1ccc(Br)s1)N(CCO)CCO, the melting point is reported as 70 °C.
CC(C)(C(=O)OCC(=O)c1ccccc1)n1c(=O)[nH]c2cccc(F)c2c1=O gave a melting point of 179 to 180 °C.
In the case of N#Cc1ccc(C=Nc2c3c(nc4ccccc24)CCCC3)cc1, the melting point is reported as 204 to 205 °C.
With Cc1ccc(Br)cc1NS(=O)(=O)c1ccccc1C(=O)O the melting point was 274 to 276 °C.
Molecule Cc1ccc2c3c(c(=O)oc2c1)CN(Cc1ccc(Cl)cc1)CC3 has a melting point of 147 to 149 °C.
Molecule Cc1ccccc1OCC1CO1 (configuration not stated) has a melting point of 114 to 116 °C.
CCOC(=O)C(C#N)=NOC(=O)OCc1ccccc1 showed a melting point of 101 to 102 °C.
In the case of COc1ccc2c(n1)C1(CO2)C(=O)N(Cc2csc(C(C)C)n2)c2ccccc21 (configuration not stated), the melting point is reported as 136 to 138 °C.
CC(=O)Oc1ccc(C=CC(=O)O)cc1Cl gave a melting point of 210 to 213 °C.
Work on CCOC(=O)c1cc2c(cn1)[nH]c1ccc(N)c(N3CCCCC3)c12 yielded a melting point of 188 to 190 °C.
COc1cnn(-c2cc(F)c(C#N)cc2F)c(=O)c1Cl showed a melting point of 182 °C.
For COC(=O)[C@H](C)NC(=O)c1cccc([N+](=O)[O-])c1N, the melting point was 133 °C.
For COc1cc2c(cc1OC)CN(CCCCNC(=O)c1cc(C)ccc1OCCOCCF)CC2, the melting point was 89.2 to 89.5 °C.
O=C(Nc1cc(Cl)cc(Cl)c1)c1cccc(Cl)c1O gave a melting point of 255 to 256 °C.
Work on COC(=O)Cc1ccccc1NC(=S)NN(C)C yielded a melting point of 130 to 131 °C.
Work on OC(c1cccc(-c2nnc(Nc3ccc(Cl)c(Cl)c3)s2)c1)c1cccc(C(F)(F)F)c1 (configuration not stated) yielded a melting point of 191 to 192 °C.
Molecule CCOC(=O)C(=CNc1ncnn1C)C(=O)c1cc(F)c(Cl)nc1Cl has a melting point of 102 to 103 °C.
With CCOC(=O)/C=C/c1cccc(C(=O)c2ccc(C(F)(F)F)cc2)n1 the melting point was 66 to 68 °C.
For CN(CCSc1ccc2ncc([N+](=O)[O-])n2n1)c1ccnc(CO)c1Cl, the melting point was 189 to 191 °C.
Molecule COC1CCN2C(=O)c3cccc(NC(=O)Nc4ccccn4)c3C2C1 (configuration not stated) has a melting point of 166 to 168 °C.
Molecule COC(=O)C1=C(CF)NC(C)=C(C(=O)OC(C)C)C1c1cccc(Cl)c1C (configuration not stated) has a melting point of 73 to 75 °C.
